The text below walks through data of patent US20150376198A1, “MODULATORS OF VASOPRESSIN RECEPTORS WITH THERAPEUTIC POTENTIAL” (priority 2013, published 2015).

Sequence of human Arginine Vasopressin Receptor 1a (AVPR1a) (P37288 whole entry): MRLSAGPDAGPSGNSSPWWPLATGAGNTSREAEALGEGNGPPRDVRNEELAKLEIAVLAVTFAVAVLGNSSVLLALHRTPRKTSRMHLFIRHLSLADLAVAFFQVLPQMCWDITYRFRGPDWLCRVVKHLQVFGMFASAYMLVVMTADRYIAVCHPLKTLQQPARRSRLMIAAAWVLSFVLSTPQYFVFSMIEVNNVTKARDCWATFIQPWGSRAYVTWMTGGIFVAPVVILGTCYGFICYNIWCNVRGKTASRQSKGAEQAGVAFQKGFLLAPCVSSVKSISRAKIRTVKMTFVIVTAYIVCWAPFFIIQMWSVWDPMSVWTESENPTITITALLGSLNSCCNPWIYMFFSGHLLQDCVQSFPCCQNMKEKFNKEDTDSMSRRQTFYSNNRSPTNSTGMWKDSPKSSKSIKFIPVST
T2 sequence (P37288 whole entry): as above

For the first assay, the target named is T1, OT receptor (Homo sapiens, UniProt P30559).
T1 sequence (P30559 1-389): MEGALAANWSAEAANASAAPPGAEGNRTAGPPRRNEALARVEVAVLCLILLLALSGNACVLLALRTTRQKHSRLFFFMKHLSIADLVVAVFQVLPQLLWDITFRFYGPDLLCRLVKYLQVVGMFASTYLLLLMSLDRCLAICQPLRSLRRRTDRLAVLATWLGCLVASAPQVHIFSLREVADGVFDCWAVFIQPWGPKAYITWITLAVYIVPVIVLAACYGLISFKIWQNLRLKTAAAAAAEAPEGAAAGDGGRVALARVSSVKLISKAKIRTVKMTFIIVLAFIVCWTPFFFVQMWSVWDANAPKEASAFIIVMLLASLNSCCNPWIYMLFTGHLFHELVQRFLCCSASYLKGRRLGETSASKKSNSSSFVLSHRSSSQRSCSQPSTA
The experiment in a line: OT receptor binding (primary binding at 10 μM and Ki). The following applies: at 10 μM; read-out: OT binding, mean % inhibition. The method, then: (§1) The default concentration for primary binding experiments was 10 μM.
See Examples for further details.
Consider `COc1ccc(NC(=O)N2CCN(c3ccccc3C)CC2)cc1` [Compound 1], for which the inhibition at 10 µM was 12.8%.
Same read-out and setting: under `CCN(C(=O)N1CCN(C(=O)c2ccccc2)CC1)c1ccc(OC)cc1` [Compound 9] stands 22.3%; under `Cc1cc(-c2nnc(C)n2-c2ccccc2)ccc1CNC(=O)N1CCN(Cc2cc(O)cc(O)c2)CC1` [Compound 11], 14.8%.
Same read-out and setting: the same measure for `COC(=O)CC(NC(=O)OC(C)(C)C)C(=O)N1CCN(c2ccccc2C)CC1` (stereo not shown) [Compound 12]: 10.6%.

The assay is the same for the next values; noted with them: read-out: OT binding Ki.
On to `CCN(C(=O)N1CCN(Cc2ccccc2)CC1)c1ccc(OC)cc1` [Compound 8], for which the Ki stood at 1180 nM.

A further assay concerns the target human Arginine Vasopressin Receptor 1a (AVPR1a) (Homo sapiens, UniProt P37288). The experiment in a line: cell-based.
Conditions: not given
The compound `O=C(C1CCN(c2cc(C(F)(F)F)ccn2)CC1)N(CC1CC1)c1ccc(Cl)cc1` [Compound 179] gave an IC50 of 37 nM.

Still in this assay, the particulars now being: read-out: V1a-R IC50.
For `O=C(C1CCN(c2ccnc(Cl)c2)CC1)N1CCCCc2cc(Cl)ccc21` [Compound 176], the IC50 worked out at 216 nM.
Consider `N#Cc1ccnc(N2CCC(C(=O)N3CCCCc4cc(Cl)ccc43)CC2)c1` [Compound 177], for which the IC50 was determined as 28 nM.
Still for that read-out and setting: the same measure for `O=C(C1CCN(c2cc(C(F)(F)F)ccn2)CC1)N1CCCCc2cc(Cl)ccc21` [Compound 178]: 17 nM; for `Cc1ccnc(N2CCC(C(=O)N3CCCCc4cc(Cl)ccc43)CC2)n1` [Compound 180]: 17 nM; for `N#Cc1ccnc(N2CCC(C(=O)N3CCCCc4cc(Cl)ccc43)CC2)n1` [Compound 181]: 81 nM.
Consider `CCc1cnc(N2CCC(C(=O)N3CCCCc4cc(Cl)ccc43)CC2)nc1` [Compound 182], for which the IC50 came out at 49 nM.
For the compound `Cc1nc(N2CCC(C(=O)N3CCCCc4cc(Cl)ccc43)CC2)ncc1F` [Compound 183], the IC50 was 16 nM.
Same read-out and setting: under `Cc1nc(N2CCC(C(=O)N3CCCCc4cc(Cl)ccc43)CC2)ncc1Cl` [Compound 184] stands 26 nM; under `Cc1nc(N2CCC(C(=O)N3CCCCc4cc(Cl)ccc43)CC2)c2ccccc2n1` [Compound 185], 32 nM.
Same read-out and setting: under `Cc1cc(N2CCC(C(=O)N3CCCCc4cc(Cl)ccc43)CC2)nc(C)n1` [Compound 186] stands 405 nM.
On the same count and under the same terms, under `O=C(C1CCN(c2ncnc3cc(Cl)ccc23)CC1)N1CCCCc2cc(Cl)ccc21` [Compound 187] stands 66 nM; under `CCc1cnc(N2CCC(C(=O)N(CC3CC3)c3ccc(Cl)cc3)CC2)nc1` [Compound 188], 227 nM; under `Cc1nc(N2CCC(C(=O)N(CC3CC3)c3ccc(Cl)cc3)CC2)ncc1F` [Compound 189], 48 nM.
With `Cc1nc(N2CCC(C(=O)N(CC3CC3)c3ccc(Cl)cc3)CC2)c2ccccc2n1` [Compound 191], the concentration for half-maximal inhibition (IC50) turned out to be 74 nM.
The same measure, in the same setting: under `Cc1cc(N2CCC(C(=O)N(CC3CC3)c3ccc(Cl)cc3)CC2)nc(C)n1` [Compound 192] stands 1250 nM.
As for `O=C(C1CCN(c2ncnc3cc(Cl)ccc23)CC1)N(CC1CC1)c1ccc(Cl)cc1` [Compound 193], the half-maximal inhibitory concentration (IC50) was found to be 861 nM.
Take `Cc1cc(C)nc(N2CCC(C(=O)N3CCCC(=O)c4cc(Cl)ccc43)CC2)n1` [Compound 194]: the IC50 was 158 nM.
For `Cc1cc(C)nc(N2CCC(C(=O)N3CCCC(O)c4cc(Cl)ccc43)CC2)n1` (stereo not shown) [Compound 195], the IC50 stood at 26 nM.
In the case of `Cc1cc(C)nc(N2CCC(C(=O)N3CCCC(F)c4cc(Cl)ccc43)CC2)n1` (stereo not shown) [Compound 196], the IC50 turned out to be 84 nM.
On the same count and under the same terms, the same measure for `Cc1cc(C)nc(N2CCC(C(=O)N3CCCC(C)(O)c4cc(Cl)ccc43)CC2)n1` (stereo not shown) [Compound 197]: 134 nM; for `CCCN(C(=O)C1CCN(c2nc(C)cc(C)n2)CC1)c1ccc(Cl)cc1` [Compound 198]: 284 nM.
Consider `Cc1cc(C)nc(N2CCC(C(=O)N(CCC(C)C)c3ccc(Cl)cc3)CC2)n1` [Compound 199], for which the IC50 came to 794 nM.
As for `Cc1cc(C)nc(N2CCC(C(=O)N(CC3CCC3)c3ccc(Cl)cc3)CC2)n1` [Compound 200], the IC50 stood at 229 nM.
`C#CCN(C(=O)C1CCN(c2nc(C)cc(C)n2)CC1)c1ccc(Cl)cc1` [Compound 201]: the IC50 turned out to be 28 nM.
In the case of `O=C(C1CCN(c2ncc(C3CC3)cn2)CC1)N(CC1CC1)c1ccc(Cl)cc1` [Compound 202], the IC50 stood at 348 nM.
On the same count and under the same terms, the same measure for `O=C(C1CCN(c2ncc(C(F)(F)F)cn2)CC1)N(CC1CC1)c1ccc(Cl)cc1` [Compound 203]: 570 nM; for `O=C(C1CCN(c2ncc3ccccc3n2)CC1)N(CC1CC1)c1ccc(Cl)cc1` [Compound 204]: 97 nM; for `O=C(C1CCN(c2ncnc3ccc(F)cc23)CC1)N(CC1CC1)c1ccc(Cl)cc1` [Compound 205]: 74 nM.
On the same count and under the same terms, the same measure for `O=C(C1CCN(c2nc3ccccc3o2)CC1)N(CC1CC1)c1ccc(Cl)cc1` [Compound 206]: 130 nM.
Regarding `O=C(C1CCN(c2nc3ccc(Cl)cc3o2)CC1)N(CC1CC1)c1ccc(Cl)cc1` [Compound 207], the IC50 stood at 350 nM.
Consider `O=C(C1CCN(c2ncc3c(n2)CCC3)CC1)N(CC1CC1)c1ccc(Cl)cc1` [Compound 208], for which the IC50 came out at 33 nM.
`O=C(C1CCN(c2ncc(C3CC3)cn2)CC1)N1CCCCc2cc(Cl)ccc21` [Compound 209]: the IC50 worked out at 69 nM.
Still for that read-out and setting: under `O=C(C1CCN(c2ncc(C(F)(F)F)cn2)CC1)N1CCCCc2cc(Cl)ccc21` [Compound 210] stands 89 nM.
For `O=C(C1CCN(c2ncc3ccccc3n2)CC1)N1CCCCc2cc(Cl)ccc21` [Compound 211], the IC50 amounted to 16 nM.
The same measure, in the same setting: under `O=C(C1CCN(c2ncnc3ccc(F)cc23)CC1)N1CCCCc2cc(Cl)ccc21` [Compound 212] stands 49 nM; under `O=C(C1CCN(c2nc3ccccc3o2)CC1)N1CCCCc2cc(Cl)ccc21` [Compound 213], 24 nM.
Consider `O=C(C1CCN(c2nc3ccc(Cl)cc3o2)CC1)N1CCCCc2cc(Cl)ccc21` [Compound 214], for which the IC50 is 45 nM.
As to `O=C(C1CCN(c2ncc3c(n2)CCC3)CC1)N1CCCCc2cc(Cl)ccc21` [Compound 215], the concentration for half-maximal inhibition (IC50) came out at 7 nM.
`Cc1cc(N2CCC(C(=O)N(CC3CC3)c3ccc(Cl)cc3)CC2)ncc1Cl` [Compound 216]: the IC50 was 41 nM.
The same measure, in the same setting: under `Cc1cc(Cl)cnc1N1CCC(C(=O)N(CC2CC2)c2ccc(Cl)cc2)CC1` [Compound 217] stands 50 nM; under `Cc1cnc(N2CCC(C(=O)N(CC3CC3)c3ccc(Cl)cc3)CC2)c(F)c1` [Compound 218], 20 nM.
The same measure, in the same setting: under `O=C(C1CCN(c2ncc(Cl)cc2F)CC1)N(CC1CC1)c1ccc(Cl)cc1` [Compound 219] stands 61 nM; under `Cc1cc(N2CCC(C(=O)N3CCCCc4cc(Cl)ccc43)CC2)ncc1Cl` [Compound 220], 7 nM.
Regarding `Cc1cc(Cl)cnc1N1CCC(C(=O)N2CCCCc3cc(Cl)ccc32)CC1` [Compound 221], the IC50 was 7 nM.
In the case of `Cc1cnc(N2CCC(C(=O)N3CCCCc4cc(Cl)ccc43)CC2)c(F)c1` [Compound 222], the concentration for half-maximal inhibition (IC50) is 5 nM.
As to `O=C(C1CCN(c2ncc(Cl)cc2F)CC1)N1CCCCc2cc(Cl)ccc21` [Compound 223], the IC50 was 19 nM.
Consider `O=C(C1CCN(c2ccc(F)cn2)CC1)N1CCCCc2cc(Cl)ccc21` [Compound 224], for which the IC50 was found to be 11 nM.
As for `O=C(C1CCN(c2ccc(Cl)cn2)CC1)N1CCCCc2cc(Cl)ccc21` [Compound 225], the IC50 worked out at 11 nM.
The same measure, in the same setting: the same measure for `O=C(C1CCN(c2ccc(C(F)(F)F)cn2)CC1)N1CCCCc2cc(Cl)ccc21` [Compound 226]: 20 nM.
For the compound `Cc1cc(C)nc(N2CCC(C(=O)N(CC3(C)COC3)c3ccc(Cl)cc3)CC2)n1` [Compound 227], the IC50 is 517 nM.
Same read-out and setting: the same measure for `CCC(CC)N(C(=O)C1CCN(c2nc(C)cc(C)n2)CC1)c1ccc(Cl)cc1` [Compound 228]: 4940 nM.
Regarding `O=C1Nc2ccccc2C2(CCN(C(=O)N3CCCCc4cc(Cl)ccc43)CC2)O1` [V:292], the IC50 is 305 nM.
For `O=C(N1CCC2(CC1)OCc1ccccc12)N1CCCCc2cc(Cl)ccc21` [V:293], the IC50 turned out to be 78 nM.

A further assay concerns the target T2, human V1a receptor (Homo sapiens, UniProt P37288).
T2 construct: expressed in transfected cells; host or cells: CHO cells (G418-selected hV1a cell line)
The experiment in a line: Vasopressin V1a receptor binding assay (3H-AVP competition, CHO cells). The settings on record: read-out: V1A binding, mean % inhibition. The protocol: Data represent Ki values (nM) or mean % inhibition (indicated as %) for exemplary compounds of formula (I) tested versus receptor subtypes.
as §1
Vasopressin V1a Receptor Binding Assay.
A cell line expressing the human Via receptor in CHO cells is used. The hV1a cDNA sequence is described by Thibonnier et al., (1994), and the expression method is the same as described by Morel et al. (1992). The hV1a cell line is grown in alpha-MEM with 10% fetal bovine serum and 250 ug/ml G418 (Gibco, Grand Island, N.Y., USA). For competitive binding assay, hV1a cells are plated into 6-well culture plate at 1:10 dilution from a confluency flask, and maintained in culture for at least two days. Culture medium is then removed, cells washed with 2 ml binding buffer (35 mM Hepes, 0.25% BSA, 1× DMEM, PH=7.0). To each well, 990 μl binding buffer containing 1 nM 3H-AVP is added, followed by 10 μl series diluted Example compounds dissolved in DMSO. All incubations are done in triplicate and dose-inhibition curves consisting of total binding (DMSO) and 5 concentrations (0.1, 1.0, 10, 100, and 1000 nM) of test agents encompassing the IC50. 100 nM cold AVP (Sigma) is used to assess non-specific binding. Cells are incubated for 45 minutes at 37° C., assay mixture is removed and each well is washed three times with PBS (pH=7.4). 1 ml 2% SDS was added per well, plates were let sit for 30 minutes. The whole content of a well is transferred to a scintillation vial. Each well is rinsed with 0.5 ml PBS which is then added to the corresponding vial. Scintillation fluid (Ecoscint) is then added at 3 ml per vial. Samples are counted in a liquid scintillation counter (Beckman LS3801). IC50 values are calculated by Prism Curve fitting software.
`COc1ccc(NC(=O)N2CCN(c3ccccc3C)CC2)cc1` [Compound 1]: the inhibition at 10 µM amounted to 34.1%.
Still for that read-out and setting: the same measure for `CCN(C(=O)N1CCN(Cc2ccccc2)CC1)c1ccc(OC)cc1` [Compound 8]: 35.1%.
